We go through one compound from patent publication US6080738A, “Heterocyclic amide compounds and medicinal uses thereof” (Yoshitomi Pharmaceuticals Industries, Ltd., priority 1996, dated 2000).

The target of the assay is T1, human heart chymase (Homo sapiens, UniProt P23946).
T1 sequence (P23946 22-247): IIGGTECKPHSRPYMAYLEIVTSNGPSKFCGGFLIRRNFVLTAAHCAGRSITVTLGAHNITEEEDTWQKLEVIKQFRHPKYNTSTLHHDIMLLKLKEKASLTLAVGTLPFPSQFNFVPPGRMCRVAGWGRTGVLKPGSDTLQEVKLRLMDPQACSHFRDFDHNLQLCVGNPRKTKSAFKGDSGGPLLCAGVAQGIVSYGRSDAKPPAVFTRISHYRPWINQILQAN
The assay is described as follows: Inhibitory activity on amidase activity of human heart chymase. In kind it is biochemical. The settings on record: 5 nM chymase; substrate succinyl-alanyl-alanyl-prolyl-phenylalanine-p-nitroanilide 2.5 mM; Tris-HCl (100 mM)-KCl (2 M), pH 7.5. The protocol: The effectiveness of the inhibitory activity of compound (I) and compound (XXVI) of the present invention was evaluated based on the inhibitory activity on amidase activity of human heart chymase, which was determined as in the following.
The inhibitory activity was quantitatively determined through variation in fractional residual activity of the enzyme caused by the inventive compound in defined serial concentration (<×1, <×10, <×100-fold equivalents) relative to 5 nM chymase in the presence of synthetic substrate, succinyl-alanyl-alanyl-prolyl-phenylalanine-p-nitroanilide (final concentration 2.5 mM). The inhibitory effect was analyzed by least square regression of Easson-Stedman plot (Proc. Roy. Soc. B. 1936, 121, p. 141) utilizing bimolecular equilibrium reaction linearization formula. The inhibitory activity was evaluated by the apparent inhibitory constant (Kiapp) obtained by this analysis and inhibitory constant (Ki) calculated from final substrate concentration in the reaction mixture and Km values separately determined. With regard to the quantlitative determination of initial rate of the enzyme reaction, the amount of p-nitroaniline produced by hydrolysis of the substrate was spectrophotometrically detected in terms of an increased absorbance which was obtained by subtracting absorbance at 650 nm wavelength from the absorbance at 405 nm. The chymase inhibitory activity of the compound of the present invention was calculated as ratio of residual activity in the presence of inhibitor relative to enzyme activity in the absence of inhibitor, and incorporation of the determination values was completed at a level less than initial rate guarantee absorbance at a concentration of the substrate used for the enzyme, after which analysis was performed.
The reaction mixture consisted of a buffer (pH 7.5, 140 μl) of Tris-HCl (100 mM) - KCl (2 M), the inventive compound dissolved in 20 μl of 10% dimethyl sulfoxide (DMSO), substrate dissolved in 20 μl of DMSO, and 20 μl of chymase, thus amounting to 200 μl in total.
Starting with the absorbance immediately after addition of the enzyme, increases in absorbance were recorded as a progressive curve taken precisely at equal time intervals.
From the above data, the difference between absorbances at completion of the reaction and immediately after addition was used to quantitatively determine the residual activity of the sample added with the inhibitor relative to a control wherein the inhibitor was not added. Alternatively, reaction rates of the control and the sample added with the inhibitor were calculated for certain time period (≥20 min) with successive shift (every 10 to 30 minutes) of the period, and the residual activity ratio was quantitatively determined and analyzed from the respective reaction rates averaged through the entire reaction time.

For the compound `Nc1cnc(-c2ccc(F)cc2)n(CC(=O)NC(Cc2ccccc2)C(=O)c2nc3cc(C(=O)O)ccc3o2)c1=O` (stereo not shown) [Example 5, 2-[5-amino-2-(4-fluorophenyl)-6-oxo-1,6-dihydro-1-pyrimidinyl]-N-[1-[(5-carboxylbenzoxazol-2-yl)carbonyl]-2-phenylethyl]acetamide], the affinity corresponds to a Ki of 76 nM. This lies in the double-digit nanomolar range.

In general, Ki refers to a measure of affinity in units of concentration, obtained from inhibition or displacement. The low end stands for tighter binding, the high end for weaker binding.
